The assay addresses Prothrombin (Homo sapiens, UniProt P00734). The assay is described as follows: Dissociation constant was evaluated by competitive inhibition of alpha-thrombin using the method of Dixon enzyme assay.

Each structure is given as a SMILES string.

In general, Ki refers to a measure of affinity in units of concentration, obtained from inhibition or displacement. Consider `c1ccc(CN2CCN(Cc3ccccc3)CCN(Cc3ccccc3)CC2)cc1`, for which the affinity corresponds to a Ki of 410 µM. In turn, `O=C(/N=N/c1ccccc1)NNc1ccccc1` displayed a Ki of 1.7 µM.

The values are drawn from ChEMBL document CHEMBL1130958, “Templates for design of inhibitors for serine proteases: application of the program DOCK to the discovery of novel inhibitors for thrombin” (Bioorg Med Chem Lett, 1998).
